Laboratory results: patent publication US11834483B2, “Immunostimulatory agents in combination with angiogenesis inhibitors” (Alkermes Pharma Ireland Limited, priority 2020, dated 2023)
Where two headings read alike, the source gives them in different places.

B1: fusion protein of SEQ ID NO: 1: circularly permuted (cp) IL-2 variant fused to the extracellular domain of the IL-2Rα portion of the IL-2 receptor (protein)
chain: SKNFHLRPRDLISNINVIVLELKGSETTFMCEYADETATIVEFLNRWITFSQSIISTLTGGSSSTKKTQLQLEHLLLDLQMILNGINNYKNPKLTRMLTFKFYMPKKATELKHLQCLEEELKPLEEVLNLAQGSGGGSELCDDDPPEIPHATFKAMAYKEGTMLNCECKRGFRRIKSGSLYMLCTGNSSHSSWDNQCQCTSSATRNTTKQVTPQPEEQKERKTTEMQSPMQPVDQASLPGHCREPPPWENEATERIYHFVVGQMVYYQCVQGYRALHRGPAESVCKMTHGKTRWTQPQLICTG
modifications: Human cpIL-2IL-2R-alpha
notes: circularly permuted (cp) IL-2 variant fused to the extracellular domain of the IL-2Rα portion of the IL-2 receptor

Key:
[1] = test system: MC38 murine colon carcinoma cells; conditions: for Median TTE: endpoint 1000 mm^3, 53 days; for Regressions CR: number of complete regressions; for Regressions PR: number of partial regressions; for Regressions TFS: tumor free survivors
[2] = test system: CD8+ T cells, macrophages, dendritic cells; assay: Immune cells in tumors and spleens of treated mice; assay type: in vivo
From the text: The combination therapy of the invention provides many beneficial and unexpected therapeutic effects as evidenced by mice treated with SEQ ID NO: 2, the murine surrogate for SEQ ID NO: 1.

[3] = test system: CD8+T cells, NK cells, Tregs; conditions: first in human clinical data, U.S. Patent Publication Number 20210038684A1; cited from earlier work
[4] = Group 2: Lenvatinib 10 mg/kg po qd × 28 (vehicle 1 sc)
[5] = Group 2: Lenvatinib 10 mg/kg po qd × 28
[6] = Group 3: Lenvatinib 30 mg/kg po qd × 28 (vehicle 1 sc)
[7] = Group 3: Lenvatinib 30 mg/kg po qd × 28
[8] = Group 4: Lenvatinib 100 mg/kg po qd × 28 (vehicle 1 sc)
[9] = Group 4: Lenvatinib 100 mg/kg po qd × 28

| Molecule | % TGD [1, 4] [%] | T − C [1, 4] [days] | Median TTE [1, 4] [days] | Regressions CR [1, 5] | Regressions PR [1, 5] | Regressions TFS [1, 5] | % TGD [1, 6] [%] | T − C [1, 6] [days] | Median TTE [1, 6] [days] | Regressions CR [1, 7] | Regressions PR [1, 7] | Regressions TFS [1, 7] | % TGD [1, 8] [%] | T − C [1, 8] [days] | Median TTE [1, 8] [days] | Regressions CR [1, 9] | Regressions PR [1, 9] | Regressions TFS [1, 9] | macrophages [2] | expansion of CD8+T cells and NK cells versus Tregs [3] |
| --- | --- | --- | --- | --- | --- | --- | --- | --- | --- | --- | --- | --- | --- | --- | --- | --- | --- | --- | --- | --- |
| COc1cc2nccc(Oc3ccc(NC(=O)NC4CC4)c(Cl)c3)c2cc1C(N)=O [Lenvatinib, 4-[3-Chloro-4-(cyclopropylaminocarbonyl)aminophenoxy]-7-methoxy-6-quinolinecarboxamide] | 168 | 24.0 | 38.3 | 0 | 1 | 0 | 162 | 23.1 | 37.4 | 0 | 0 | 0 | 164 | 23.4 | 37.7 | 0 | 0 | 0 | decrease in macrophages |  |
| B1 |  |  |  |  |  |  |  |  |  |  |  |  |  |  |  |  |  |  |  | activates expansion of CD8+T cells and NK cells in a dose dependent manner in the absence of dose dependent activation of Tregs |
